Assay results published in patent US11964953B2, “Substituted aminothiazoles as DGKzeta inhibitors for immune activation” (Bayer Aktiengesellschaft, priority 2020, dated 2024).

These compounds were tested against human DGKζ (Homo sapiens (Human), UniProt Q13574) (assay: Human DGKζ kinase activity inhibition assay (ADP-Glo)). Settings: in vitro human DGKζ kinase activity inhibition assay; read-out: IC50.
Sequence of human DGKζ (Q13574 other isoform, or with tags, fused parts or gaps): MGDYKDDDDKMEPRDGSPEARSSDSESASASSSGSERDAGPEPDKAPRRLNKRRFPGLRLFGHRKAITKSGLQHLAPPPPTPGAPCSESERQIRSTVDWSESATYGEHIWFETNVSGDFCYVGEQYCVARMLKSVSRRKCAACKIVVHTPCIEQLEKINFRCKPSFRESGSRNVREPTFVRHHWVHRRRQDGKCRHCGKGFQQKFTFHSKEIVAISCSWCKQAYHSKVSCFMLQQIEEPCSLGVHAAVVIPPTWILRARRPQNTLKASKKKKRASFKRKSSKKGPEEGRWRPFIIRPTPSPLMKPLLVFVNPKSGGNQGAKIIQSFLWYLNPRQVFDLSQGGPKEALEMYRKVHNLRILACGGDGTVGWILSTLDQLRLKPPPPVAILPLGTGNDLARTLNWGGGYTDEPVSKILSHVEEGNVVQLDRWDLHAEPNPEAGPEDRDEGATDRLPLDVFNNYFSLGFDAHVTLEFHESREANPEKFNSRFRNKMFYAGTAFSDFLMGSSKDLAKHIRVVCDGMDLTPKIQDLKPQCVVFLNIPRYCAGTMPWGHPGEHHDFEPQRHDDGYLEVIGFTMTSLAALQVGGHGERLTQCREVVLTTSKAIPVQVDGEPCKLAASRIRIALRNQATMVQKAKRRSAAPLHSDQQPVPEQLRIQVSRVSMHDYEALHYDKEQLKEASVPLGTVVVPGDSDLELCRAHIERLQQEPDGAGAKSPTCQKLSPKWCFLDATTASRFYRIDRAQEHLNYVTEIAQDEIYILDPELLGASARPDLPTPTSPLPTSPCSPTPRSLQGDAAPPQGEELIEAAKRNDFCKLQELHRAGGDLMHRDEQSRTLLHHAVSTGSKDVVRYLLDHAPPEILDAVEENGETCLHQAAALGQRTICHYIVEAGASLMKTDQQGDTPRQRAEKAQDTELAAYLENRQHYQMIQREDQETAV
Format: biochemical
Summary of the method: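 ADP-Glo luminescence, reflecting ADP produced, served as the readout of activity. Full-length human DGKζ, FLAG-tagged at the C-terminus and insect-cell expressed, was used; lipid substrate mix was sonicated with octyl-β-D-glucopyranoside in 50 mM MOPS pH 7.4.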
In the case of `CC(C(N)=O)N(c1ccc(F)cc1)c1nc(N)c(C(=O)c2ccc(OCC(=O)N3CCC(Cc4ccccc4)CC3)cc2)s1` (racemic) [Example 90, rac-2-(N-[4-amino-5-[4-[2-(4-benzyl-1-piperidyl)-2-oxo-ethoxy]benzoyl]thiazol-2-yl]-4-fluoro-anilino)propanamide], the IC50 is reported as 63.3 nM.
`CC(Oc1ccc(C(=O)c2sc(N(c3ccccc3)C(C)C(N)=O)nc2N)cc1)C(N)=O` (single isomer, unassigned) [Example 45.2, 2-(N-[4-amino-5-[4-[2-amino-1-methyl-2-oxo-ethoxy]benzoyl]thiazol-2-yl]anilino)propanamide] was tested, and the IC50 was 8910 nM.
Compound `CC(C(N)=O)N(c1ccc(OC(F)(F)F)c(Cl)c1)c1nc(N)c(C(=O)c2ccc(OC(F)F)cc2)s1` (racemic) [Example 224, rac-2-[N-[4-amino-5-[4-(difluoromethoxy)benzoyl]thiazol-2-yl]-3-chloro-4-(trifluoromethoxy)anilino]propanamide] has an IC50 of 45 nM.
`CC(C(N)=O)N(c1ccc(F)cc1)c1nc(N)c(C(=O)c2ccc(OCC(=O)N(C)CCCN(C)C)cc2)s1` (racemic) [Example 113, rac-2-(N-(4-amino-5-[4-[2-[3-(dimethylamino)propyl-methyl-amino]-2-oxo-ethoxy]benzoyl]thiazol-2-yl]-4-fluoro-anilino)propanamide] was tested, and the IC50 was 703 nM.
In the case of `CC(C(N)=O)N(c1nc(N)c(C(=O)c2ccccc2)s1)c1ccc(F)cc1Br` (racemic) [Example 5, rac-2-(N-(4-amino-5-benzoyl-thiazol-2-yl)-2-bromo-4-fluoro-anilino)propanamide], the IC50 is reported as 757 nM.
`CC(C(N)=O)N(c1ccc(F)cc1)c1nc(N)c(C(=O)c2ccc(OCC(=O)N3CCN(C)CC3)cc2)s1` (racemic) [Example 86, rac-2-(N-[4-amino-5-[4-[2-(4-methylpiperazin-1-yl)-2-oxo-ethoxy]benzoyl]thiazol-2-yl]-4-fluoro-anilino)propanamide] gave an IC50 of 759 nM.
`Cc1ccc(C(=O)c2sc(N(c3ccc(F)cc3)C(C)C(N)=O)nc2N)cn1` (racemic) [Example 6, rac-2-(N-[4-amino-5-(6-methylpyridine-3-carbonyl)thiazol-2-yl]-4-fluoro-anilino)propanamide] gave an IC50 of 740 nM.
`CC(C(N)=O)N(c1ccc(OC(F)(F)F)c(F)c1)c1nc(N)c(C(=O)c2ccc(Cl)cc2)s1` (racemic) [Example 218, rac-2-[N-[4-amino-5-(4-chlorobenzoyl)thiazol-2-yl]-3-fluoro-4-(trifluoromethoxy)anilino]propanamide] gave an IC50 of 64 nM.
`CC(C(N)=O)N(c1ccc(F)cc1)c1nc(N)c(C(=O)c2ccc(OC(F)F)cc2)s1` (single isomer, unassigned) [Example 44.1, 2-(N-[4-amino-5-[4-(difluoromethoxy)benzoyl]thiazol-2-yl]-4-fluoro-anilino)propanamide] gave an IC50 of 1390 nM.
In the case of `COc1ccc(C(=O)c2sc(N(c3ccc(OC(F)(F)F)nc3)C(C)C(N)=O)nc2N)cc1` (racemic) [Example 248, rac-2-[[4-amino-5-(4-methoxybenzoyl)thiazol-2-yl]-[6-(trifluoromethoxy)-3-pyridyl]amino]propanamide], the IC50 is reported as 136 nM.
`Cc1ccc(C(=O)c2sc(N(c3ccc(F)cc3)C(C)C(N)=O)nc2N)cc1` (single isomer, unassigned) [Example 63.1, 2-(N-[4-amino-5-(4-methylbenzoyl)thiazol-2-yl]-4-fluoro-anilino)propanamide] gave an IC50 of 5170 nM.
`CC(C(N)=O)N(c1ccc(F)c(F)c1)c1nc(N)c(C(=O)c2cccnc2)s1` (single isomer, unassigned) [Example 184.1, 2-(N-[4-amino-5-(pyridine-3-carbonyl)thiazol-2-yl]-3,4-difluoro-anilino)propanamide] gave an IC50 of 297 nM.
With `C#CCN(C)C(=O)COc1ccc(C(=O)c2sc(N(c3ccc(F)cc3)C(C)C(N)=O)nc2N)cc1` (racemic) [Example 93, rac-2-(N-[4-amino-5-[4-[2-[methyl(prop-2-ynyl)amino]-2-oxo-ethoxy]benzoyl]thiazol-2-yl]-4-fluoro-anilino)propanamide] the IC50 was 187 nM.
`CC(C(N)=O)N(c1ccc(F)cc1)c1nc(N)c(C(=O)c2ccc(N3CC4CCC(C4)C3)nc2)s1` (racemic) [Example 280, rac-2-(N-[4-amino-5-[6-(3-azabicyclo[3.2.1]octan-3-yl)pyridine-3-carbonyl]thiazol-2-yl]-4-fluoro-anilino)propanamide] gave an IC50 of 43 nM.
`CC(C(N)=O)N(c1ccc(C(F)F)cc1)c1nc(N)c(C(=O)c2ccc(OC(F)F)nc2)s1` (racemic) [Example 247, rac-2-[N-[4-amino-5-[6-(difluoromethoxy)pyridine-3-carbonyl]thiazol-2-yl]-4-(difluoromethyl)anilino]propanamide] gave an IC50 of 40 nM.
`CC(C(N)=O)N(c1ccc(F)cc1)c1nc(N)c(C(=O)c2ccc(OCC(=O)N3CCOCC3)cc2)s1` (racemic) [Example 88, rac-2-(N-[4-amino-5-[4-(2-morpholino-2-oxo-ethoxy)benzoyl]thiazol-2-yl]-4-fluoro-anilino)propanamide] showed an IC50 of 667 nM.
For `CCN(C)C(=O)COc1ccc(C(=O)c2sc(N(c3ccc(F)cc3)C(C)C(N)=O)nc2N)cc1` (racemic) [Example 111, rac-2-(N-[4-amino-5-[4-[2-[ethyl(methyl)amino]-2-oxo-ethoxy]benzoyl]thiazol-2-yl]-4-fluoro-anilino)propanamide], the IC50 was 334 nM.
With `CC(C(N)=O)N(c1ccc(Cl)c(F)c1)c1nc(N)c(C(=O)c2ccc(C(=O)NCCOC(F)F)cc2)s1` (racemic) [Example 270, rac-4-[4-amino-2-(N-(2-amino-1-methyl-2-oxo-ethyl)-4-chloro-3-fluoro-anilino)thiazole-5-carbonyl]-N-2-(difluoromethoxy)ethyl]benzamide] the IC50 was 13 nM.
For `CC(C(N)=O)N(c1ccc(F)c(F)c1)c1nc(N)c(C(=O)c2ccc(OC(F)F)cc2)s1` (racemic) [Example 49, rac-2-(N-[4-amino-5-[4-(difluoromethoxy)benzoyl]thiazol-2-yl]-3,4-difluoro-anilino)propanamide], the IC50 was 2.76 nM.
`CC(C(N)=O)N(c1ccc2c(c1)OC(F)(F)O2)c1nc(N)c(C(=O)c2ccc(Cl)cc2)s1` (racemic) [Example 213, rac-2-[[4-amino-5-(4-chlorobenzoyl)thiazol-2-yl]-(2,2-difluoro-1 ,3-benzodioxol-5-yl)amino]propanamide] showed an IC50 of 42 nM.
With `CC(C(N)=O)N(c1ccc(OC(F)F)c(F)c1)c1nc(N)c(C(=O)c2ccc(OC(F)F)nc2)s1` (racemic) [Example 210, rac-2-[N-[4-amino-5-[6-(difluoromethoxy)pyridine-3-carbonyl]thiazol-2-yl]-4-(difluoromethoxy)-3-fluoro-anilino]propanamide] the IC50 was 69 nM.
Work on `CCOC(=O)c1ccc(C(=O)c2sc(N(c3ccc(Cl)c(F)c3)C(C)C(N)=O)nc2N)cc1` (racemic) [Example 258, rac-Ethyl 4-[4-amino-2-(N-(2-amino-1-methyl-2-oxo-ethyl)-4-chloro-3-fluoro-anilino)thiazole-5-carbonyl]benzoate] yielded an IC50 of 19 nM.
`CC(C(N)=O)N(c1cnn(C)c1)c1nc(N)c(C(=O)c2ccccc2)s1` (racemic) [Example 78, rac-2-[(4-amino-5-benzoyl-thiazol-2-yl)-(1-methylpyrazol-4-yl)amino]propanamide] showed an IC50 of 7220 nM.
For `CC(C(N)=O)N(c1ccc(Cl)cc1)c1nc(N)c(C(=O)c2ccc(Cl)cc2)s1` (single isomer, unassigned) [Example 41.1, 2-(N-[4-amino-5-(4-chlorobenzoyl)thiazol-2-yl]-4-chloro-anilino)propanamide], the IC50 was 2930 nM.
For `CC(C(N)=O)N(c1ccc(F)cc1)c1nc(N)c(C(=O)c2ccc(O)cc2)s1` (single isomer, unassigned) [Example 286, 2-(N-[4-amino-5-(4-hydroxybenzoyl)thiazol-2-yl]-4-fluoro-anilino)propanamide (single enantiomer)], the IC50 was 31 nM.
Work on `CC(C(N)=O)N(c1nc(N)c(C(=O)c2ccccc2)s1)c1ccc(OC(F)(F)F)cc1F` (racemic) [Example 239, rac-2-[N-(4-amino-5-benzoyl-thiazol-2-yl)-2-fluoro-4-(trifluoromethoxy)anilino]propanamide] yielded an IC50 of 236 nM.
Work on `COc1ccc(C(=O)c2sc(N(c3ccc(Cl)cc3)C(C)C(N)=O)nc2N)cc1` (racemic) [Example 58, rac-2-(N-[4-amino-5-(4-methoxybenzoyl)thiazol-2-yl]-4-chloro-anilino)propanamide] yielded an IC50 of 16.7 nM.
Compound `CC1CC(C)CN(c2ccc(C(=O)c3sc(N(c4ccc(F)cc4)C(C)C(N)=O)nc3N)cn2)C1` (racemic) [Example 281, rac-2-(N-[4-amino-5-[6-(3,5-dimethyl-1-piperidyl)pyridine-3-carbonyl]thiazol-2-yl]-4-fluoro-anilino)propanamide] has an IC50 of 98 nM.
`CC(C(N)=O)N(c1ccc(Cl)cc1)c1nc(N)c(C(=O)c2ccncc2)s1` (single isomer, unassigned) [Example 57.2, 2-(N-[4-amino-5-(pyridine-4-carbonyl)thiazol-2-yl]-4-chloro-anilino)propanamide] gave an IC50 of 14600 nM.
With `COc1ccc(N(c2nc(N)c(C(=O)c3ccc(OC(F)F)cc3)s2)C(C)C(N)=O)cc1` (single isomer, unassigned) [Example 174.1, 2-(N-[4-amino-5-[4-(difluoromethoxy)benzoyl]thiazol-2-yl]-4-methoxy-anilino)propanamide] the IC50 was 26 nM.
For `COc1ccc(C(=O)c2sc(N(c3ccc(F)cc3)C(C)C(N)=O)nc2C)cc1` (single isomer, unassigned) [Example 176.2, 2-(4-fluoro-N-[5-(4-methoxybenzoyl)-4-methyl-thiazol-2-yl]anilino)propanamide], the IC50 was 672 nM.
`CC(=O)OCCOc1ccc(C(=O)c2sc(N(c3ccc(F)cc3)C(C)C(N)=O)nc2N)cc1` (racemic) [Example 168, rac-2-[4-[4-amino-2-(N-(2-amino-1-methyl-2-oxo-ethyl)-4-fluoro-anilino)thiazole-5-carbonyl]phenoxy]ethyl acetate] gave an IC50 of 19 nM.
